Test results reported in PubChem BioAssay (NCI).
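Each compound was tested at five concentrations against cells in 96-well plates for 48 hours. Abbreviation: GI50, concentration required for 50% inhibition of growth. TGI is the concentration that stops growth completely.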

Assays:
Assay in all cases: growth of human tumour cells (NCI), 48 h
[1] = tested on: CAKI-1 renal
[2] = tested on: LOX IMVI melanoma
[3] = tested on: SNB-75 CNS
[4] = tested on: MOLT-4 leukemia
[5] = tested on: SK-MEL-2 melanoma
[6] = tested on: SF-268 CNS
[7] = tested on: KM12 colon
[8] = tested on: NCI-H522 lung
[9] = tested on: SK-OV-3 ovarian
[10] = tested on: SW-620 colon

Structure (SMILES) | TGI [1] [µM] | TGI [2] [µM] | TGI [3] [µM] | TGI [4] [µM] | TGI [5] [µM] | TGI [6] [µM] | TGI [7] [µM] | TGI [8] [µM] | TGI [9] [µM] | TGI [10] [µM] | GI50 [1] [µM] | GI50 [2] [µM] | GI50 [3] [µM] | GI50 [4] [µM] | GI50 [5] [µM] | GI50 [6] [µM] | GI50 [7] [µM] | GI50 [8] [µM] | GI50 [9] [µM] | GI50 [10] [µM]
COc1ccc2c(c1O)C13CCN(C)C(C2)C1CCC1(C3)OCCO1 (centres undefined) | > 100 | > 100 | > 100 | > 100 | > 100 | > 100 | > 100 | > 100 | > 100 | > 100 | – | – | – | – | – | – | – | – | – | –
CCCCCCc1cc2cc(-c3nc4ccccc4[nH]3)c(=Nc3ccccc3C)oc2cc1O | 9.74 | 3.74 | 3.49 | 22.5 | 6.61 | 8.45 | 11.7 | 5.11 | 13.7 | 4.91 | 2.36 | 1.87 | 1.41 | 3.9 | 2.75 | 2.65 | 3.27 | 2.11 | 3.57 | 2.04
Cc1ccc2c(c1)c1nc3cc(C)c(C)cc3nc1n2CCN(C)C | 4.46 | 4.45 | 6.41 | 16.3 | 4.87 | 7.65 | 10.5 | 5.58 | 8.52 | 5.46 | 1.33 | 1.45 | 1.5 | 1.73 | 2.15 | 2.51 | 2.67 | 1.54 | 2.61 | 1.13
O=C(Nc1ccc(F)cc1)Nc1ccccc1CNc1nc(Nc2ccc(OCCN3CCCC3)cc2)ncc1Cl | 9.25 | 1.69 | 1.35 | 4.74 | 18.4 | 4.84 | 6.35 | 13.4 | – | 6.84 | 2.87 | 0.914 | 0.677 | 1.53 | 8.7 | 1.26 | 1.81 | 2.26 | – | 1.65
COc1ccc2c(c1)C(=O)N1CCOC1C2C(=O)O (centres undefined) | > 100 | > 100 | > 100 | > 100 | – | > 100 | > 100 | > 100 | > 100 | > 100 | – | – | – | – | – | – | – | – | – | –
CCOC(=O)c1sc2ncn(Cc3cccc(Br)c3)c(=O)c2c1C | 97.5 | > 100 | > 100 | > 100 | 81 | > 100 | > 100 | 65.8 | > 100 | > 100 | 24.6 | 84.9 | 69.2 | 25.3 | 17.7 | 54.9 | 28.9 | 9.7 | > 100 | 97.6
O=[N+]([O-])c1ccccc1N=Nc1c(O)[nH]c2ccc(Br)cc12 | 33.1 | > 61 | 36.1 | > 78.5 | 54.1 | 51.9 | 36.5 | > 34.8 | > 77.3 | > 62.4 | – | – | – | – | – | – | – | – | – | –
CC(=O)Oc1cc(C)c2c(c1OC(C)=O)CC1(O2)[C@@H](C)CCC2[C@@]3(C)CC[C@H](OC(C)=O)C(C)(C)C3CC[C@]21C (some centres undefined) | 4.3 | 14 | 14.9 | 42.2 | – | 12.8 | 18.2 | – | 25.5 | 12.3 | – | – | – | – | – | – | – | – | – | –
N#CC(/C(=N/NC(=O)C(=O)NN)C(=O)Nc1nc([N+](=O)[O-])cs1)c1ccc(Cl)cc1 (centres undefined) | – | > 100 | > 100 | > 100 | > 100 | > 100 | > 100 | – | – | > 100 | – | – | – | – | – | – | – | – | – | –
CCCCCc1nc2c(c3c1CCCC3)CCCC2 | 24 | 27 | 51.7 | 62.6 | 27.4 | 44.4 | 33.7 | 17.9 | 30 | 27.3 | 3.98 | 13.4 | 13.3 | 8.88 | 12.7 | 14.8 | 6.94 | 2.84 | 11.6 | 11.2
C#CCN(Cc1nc2cc(C(F)(F)F)ccc2nc1-c1ccccc1)c1ccc(OC(F)(F)F)cc1 | > 100 | 96.1 | > 100 | > 100 | > 100 | > 100 | 78.8 | 54.6 | > 100 | > 100 | 62 | 37 | > 100 | 32.2 | > 100 | 47.5 | 29.1 | 16.6 | > 100 | 40.9
CC[O-].CC[O-].O=C([CH-]C(=O)c1cccnc1)c1ccccc1.O=C([CH-]C(=O)c1cccnc1)c1ccccc1.[Ti+4] | > 100 | > 100 | 69 | > 100 | > 100 | > 100 | > 100 | > 100 | > 100 | > 100 | > 100 | > 100 | 19.9 | 13.6 | > 100 | 88.3 | 32.7 | 26.1 | 91.8 | 96.8
CCN(CC)CCCn1cnc2ncccc2c1=O | > 100 | > 100 | > 100 | – | > 100 | > 100 | > 100 | > 100 | > 100 | > 100 | – | – | – | – | – | – | – | – | – | –
Cc1cc(NCCCNc2ccnc3cc(Cl)ccc23)nc(N2CCN(C)CC2)n1 | 11.2 | 5.2 | 34.4 | 15.8 | – | 26.3 | 17.1 | 11.1 | 45.6 | 17.5 | 3.12 | 2 | 13 | 2.46 | – | 6.74 | 3.97 | 2.43 | 7.66 | 2.62
Cc1oc2c(C)c3oc(=O)cc(C)c3cc2c1CNC(=O)[C@@H]1OCCOCCOCCOCCOCCOC1C(=O)O (some centres undefined) | > 100 | > 100 | > 100 | > 100 | – | > 100 | > 100 | > 100 | > 100 | > 100 | – | – | – | – | – | – | – | – | – | –
O=C(O)C1=CCCc2ccc3ccccc3c21 | – | > 100 | > 100 | > 100 | > 100 | > 100 | > 100 | > 100 | > 100 | > 100 | – | – | – | – | – | – | – | – | – | –
Cc1ccccc1C1=[N+]([O-])c2ccccc2C1=O | – | 35 | 47 | 49.2 | 21.2 | 36.8 | 25.9 | 29 | > 100 | 45.1 | – | – | – | – | – | – | – | – | – | –

Structure (SMILES) | TGI [1] [µM] | TGI [2] [µM] | TGI [3] [µM] | TGI [4] [µM] | TGI [5] [µM] | TGI [6] [µM] | TGI [7] [µM] | TGI [8] [µM] | TGI [9] [µM] | TGI [10] [µM] | GI50 [1] [µM] | GI50 [2] [µM] | GI50 [3] [µM] | GI50 [4] [µM] | GI50 [5] [µM] | GI50 [6] [µM] | GI50 [7] [µM] | GI50 [8] [µM] | GI50 [9] [µM] | GI50 [10] [µM]
N#CC(C(=O)/C(=N/NC(=O)c1ccccc1O)C(C#N)c1ccccc1)c1ccccc1 (centres undefined) | – | > 100 | > 100 | – | > 100 | > 100 | > 100 | – | > 100 | – | – | – | – | – | – | – | – | – | – | –
COC(=O)C1=C(C)NC(C)=C(C(=O)OC)C1/C=C(\Cl)c1ccc(Cl)c(Cl)c1 | 27.2 | 23.5 | 22.9 | 27.6 | – | 28.4 | 31.5 | 32.4 | 49 | 28.7 | 13.7 | 11.4 | 8.25 | 3.69 | – | 13.1 | 15.4 | 16.6 | 21.1 | 12.2
CC(=O)CCc1ccc(OC2OC(COC(=O)c3cc(O)c(O)c(O)c3)C(O)C(O)C2OC(=O)/C=C/c2ccccc2)cc1 (centres undefined) | > 100 | 41.4 | – | 48.7 | 43 | 49.4 | 43.5 | 48 | 68.5 | 97.5 | 29.7 | 17.1 | – | 17.2 | 20.2 | 19.3 | 21 | 18.1 | 29.8 | 35.1
C/C(=N\NC(N)=S)c1cc(C)c(C)cc1C | > 100 | > 100 | 85.3 | 84.5 | > 100 | > 100 | 71.2 | – | > 100 | > 100 | – | – | – | – | – | – | – | – | – | –
O=C(C=Nc1ccccc1C(=O)[O-])c1cccs1.O=C(C=Nc1ccccc1C(=O)[O-])c1cccs1.[Co+2] | > 100 | > 100 | – | > 100 | > 100 | > 100 | > 100 | > 100 | > 100 | > 100 | – | – | – | – | – | – | – | – | – | –
CCOc1ccccc1NC(=O)c1cc2ccccc2cc1O | 12.6 | 11.2 | 15.8 | 7.17 | 5.47 | 20.4 | 7.15 | 6.9 | – | 12.6 | 3.45 | 3.28 | 2.89 | 2.72 | 2.42 | 3.91 | 2.59 | 2.22 | – | 3.67
CC1(Cl)CC2OC3(Br)C=CC(C)(O)C2(CC1Br)C3(C)C (centres undefined) | > 100 | > 100 | > 100 | > 100 | > 100 | > 100 | > 100 | – | > 100 | > 100 | – | – | – | – | – | – | – | – | – | –
N=C(N)c1ccc(OCCOCCOc2ccc(C(=N)N)cc2)cc1 | > 100 | > 100 | > 100 | > 100 | > 100 | > 100 | > 100 | > 100 | – | > 100 | > 100 | > 100 | > 100 | > 100 | 38.2 | 52 | 41.6 | 45.5 | – | > 100
CC1OC(n2ccc(=O)[nH]c2=O)C=C(OC(=O)c2ccccc2)C1=O (centres undefined) | > 100 | > 100 | 63.1 | > 100 | – | – | – | – | > 100 | > 100 | – | – | – | – | – | – | – | – | – | –
[Cl][Sn]([Cl])([c]1ccccc1)[c]1ccccc1 | 6.52 | 17.1 | 22.9 | 36.9 | 14.1 | 30.4 | 39.1 | – | 31.6 | 10.2 | 2.29 | 4.51 | 10.8 | 5.25 | 4 | 13.2 | 19.6 | – | 17.4 | 3.02
O=C1c2cccnc2C(=O)C2C3C=CC(C3)C12 (centres undefined) | 31.9 | 15.7 | 25.8 | – | 16.9 | 24.3 | 32 | 13.8 | 43.9 | 28.2 | – | – | – | – | – | – | – | – | – | –
O=S(=O)(N/N=C/c1ccc(Cl)c(Cl)c1)c1ccccc1 | > 100 | > 100 | > 100 | 84.4 | > 100 | > 100 | > 100 | – | > 100 | > 100 | – | – | – | – | – | – | – | – | – | –
CCOC(=O)c1c(-c2ccccc2)oc(-c2ccccc2)c1C(=O)OCC | – | > 100 | > 100 | > 100 | > 100 | > 100 | > 100 | > 100 | > 100 | > 100 | – | – | – | – | – | – | – | – | – | –
Cn1c2c(c3ccccc31)CCN(CCN1CCN(c3ccccc3)CC1)C2=O | > 100 | > 100 | – | > 100 | – | > 100 | – | 92.9 | > 100 | > 100 | – | – | – | – | – | – | – | – | – | –
N#C/C(=N\Nc1ccc(Cl)cc1)C(=O)Nc1cc(-c2ccccc2)nn1-c1ccccc1 | – | – | – | > 100 | 8.89 | > 100 | > 100 | > 100 | 6.66 | > 100 | – | – | – | 3.5 | 2.39 | 2.65 | 2.92 | 2.38 | 2.28 | 3.11
O=c1c2ccccc2c(Br)c(Br)c2ccccc12 | 4.39 | 5.77 | 56 | – | 32.5 | 25 | 29.6 | 3.47 | > 100 | 3.13 | 1.78 | 2.22 | 19.2 | – | 13.3 | 8.89 | 12.5 | 1.76 | 38.3 | 1.09
Nc1nc(N)c(Cn2ccnc2)c(=O)[nH]1 | > 100 | > 100 | > 100 | – | > 100 | > 100 | > 100 | > 100 | > 100 | – | – | – | – | – | – | – | – | – | – | –
